Measured values as given in patent US12428405B2, “Chalcone-based chemotherapeutic compound for triple negative breast cancer” (QATAR UNIVERSITY, priority 2019, dated 2025).
Entries after “also recorded” stand apart in the source; their conditions may differ.

Legend:
MDA-MB-468 = assay: PE Annexin V apoptosis assay (flow cytometry); type: cell-based
Protocol: PE Annexin V apoptosis Detection Kit (BD Pharmingen, USA) was used to quantify cell apoptosis in treated versus untreated MDA-MB-468 cells at 24 and 48 hours post treatment. Briefly, cells were seeded at a density of 300,000 cells/well in 6-well plates. Second day, media was replaced with fresh media and treatment was added. Cells were harvested following treatment and each group of cells was stained with PE Annexin V and 7-AAD Annexin V as per the protocol specified on the kit. Samples were then analyzed by Accuri C6 flow cytometer (BD Biosciences, USA). The percentages of cells (viable cells, apoptotic cells, necrotic cells and dead cells) were quantified in each of the four quadrants. Data and figures were processed using the FlowJo V10 software.

[1] = system: BAX/bcl2 expression in MDA-MB-231 cell line; assay: Western blot of BAX/bcl-2 expression; type: cell-based; settings: 48 h, 5 and 10 μM; vs DMSO and colchicine
Protocol: (§1) Proteins were quantified with the Pierce BCA Protein Assay Kit (Thermo Scientific, USA) following cell lysis. SDS-PAGE was prepared at a concentration of 10% for all studied proteins. All samples were loaded at 40 μg per 1.5 mm 15 wells comb. Running of stained samples was performed using two steps gel electrophoresis (60 Volts for 20 minutes followed by 120 Volts for 1 hour). Afterwards, gels were transferred into PVDF membrane at 100 Voltage for 1.5-2.0 hours using wet transfer. Following transfer, PVDF membranes were blocked with 5% skimmed milk and washed three times. Primary antibodies (Table 2.2) were prepared, then PVDF membrane were incubated with them overnight with gentle shaking at 4° C. Afterwards, membranes were washed three times and incubated with their respective secondary antibodies for 1-2 hours with gentle shaking at room temperature. Pierce™ ECL Western Blotting Substrate was used to detect proteins by chemiluminescence. Blots were imaged using the ibrightCL1000 imaging system.

[2] = system: BAX/bcl2 expression in MCF-7 cell line; assay: Western blot of BAX/bcl-2 expression; type: cell-based; settings: 48 h, 5 and 10 μM; vs DMSO and colchicine
Protocol: as §1

tubulin = assay: Cell free tubulin polymerization assay; type: biochemical; settings: N=1×2, colchicine and paclitaxel as controls
Protocol: The effect of compound 14 on tubulin polymerization dynamics was assessed using the cell free Cytoskeleton tubulin polymerization assay kit, Version 8.3 (Cytoskeleton, Inc., USA). The experiment was conducted based on the manufacturer's recommendations. colchicine was used as a depolymerizing control while paclitaxel was used as a polymerizing control. Briefly, stock solutions of 10 μM of the compounds and controls were prepared in general tubulin buffer. Then, 10 μl of each solution was added in duplicates in half area 96-well plate prewarmed at 37° C. It was subsequently incubated at 37° C. for 2 minutes. Tubulin solution was prepared and 100 μl of it was added to each of the prewarmed wells of the compounds. The plate was immediately placed at a plate reader set up at kinetic modes and 37° C. temperature. Recording was conducted every minute for 60 minutes at 340 nm Absorbance.

## COc1cccc(C(=O)/C=C/c2ccc(N(CCCl)CCCl)cc2)c1 [Compound 14, (E)-3-(4-(Bis(2-chloroethyl)amino)phenyl)-1-(3-methoxyphenyl) prop-2-en-1-one]
MDA-MB-468; 24 and 48 hours
  early and late apoptosis (in words): time dependent
MDA-MB-468; 48 hours, N=1
  rate of apoptosis: 28.00%
[1]
  BAX / bcl-2 protein expression, BAX/bcl-2 ratio: upregulation of BAX and downregulation of bcl-2; also recorded: positive increase in BAX/bcl-2 ratio
[2]
  BAX / bcl-2 protein expression, BAX/bcl-2 ratio: upregulation of BAX and downregulation of bcl-2; also recorded: positive increase in BAX/bcl-2 ratio
tubulin
  effect on tubulin polymerization (in words): inhibited with an effect comparable to colchicine; also recorded: comparable to tubulin desterilizing agent, colchicine
